Assay results published in patent US10213447B2, “Preparation of acetate salt compositions of pharmaceutical agents” (The Curators of the University of Missouri, priority 2015, dated 2019).
≈ marks a conversion by molar mass, not a printed value.

Legend:
[1] = Particle size, zeta potential and polydispersity index by dynamic light scattering; assay type: physicochemical
Description: Fresh NPs were re-suspended by sonication (Qsonica LLC, Newtown, Conn., USA) in deionized water, or SA coated NPs were dissolved in deionized water and the particle size, the zeta potential, and polydispersity index (PDI) was measured through dynamic light scattering (Zetasizer Nano ZS, Malvern Instruments Ltd, Worcestershire, UK) at 25° C. Samples with polydispersity index (PDI)<0.05 were considered monodispersed according to the National Institute guidelines (7).

[2] = cited from earlier work
[3] = physchem; conditions: pH 7, aqueous buffer, thermodynamic from solid
[4] = cited from earlier work; remark: listed apart in the source
[5] = Meng, et al.; cited from earlier work
[6] = cited from earlier work; remark: listed apart in the source
[7] = in vivo; cited from earlier work

## CC(=O)[O-].[Na+] [pure salt, sodium acetate]
[1]; as worded
  ZP: 0-3 mV
[1]; pure salt
  Zeta potential of pure salt (ev): −4.87 ± 0.64 ev

## O=P(O)(O)OP(=O)(O)OP(=O)(O)O [Triphosphoric acid]
[2]; fifth dissociation, printed pKa
  pKa (fifth listed): 8.5
[2]; first dissociation
  pKa1: 1
[2]; fourth dissociation
  pKa4: 3.7
[2]; second dissociation, printed pKa
  pKa (second listed): 2.2
[2]; third dissociation
  pKa3: 2.3

## CC(=O)O[C@@]12CO[C@@H]1C[C@H](O)[C@@]1(C)C(=O)[C@H](O)C3=C(C)[C@@H](OC(=O)[C@H](O)[C@@H](NC(=O)OC(C)(C)C)c4ccccc4)C[C@@](O)([C@@H](OC(=O)c4ccccc4)[C@H]21)C3(C)C [uncoated DXT, Docetaxel, reference compound]
[3]
  solubility: ~11.8 µg/mL (≈ 14.6 µM)
[2]
  pKa: ~10.96

## C[C@H](Cn1cnc2c(N)ncnc21)OCP(=O)(O)O [TFV, tenofovir]
[4]
  log P: −1.1
[5]
  TFV encapsulated in chitosan NPs (EE %): 5.83%
[6]
  Solubility in water: 13.4 mg/mL (≈ 46700 µM)
[7]
  Oral bioavailability: 25-39%
